One data set concerns TZM. Put plainly: (§1) Cytotoxicity against human TZM-bl cells assessed as reduction in cell viability incubated for 3 days by MTS assay. The data set is classed as toxicity, cell-based. As to conditions: tzm, 72 h, time 3 day. For orientation: Tetrazolium dyes change colour on reduction, which living cells bring about.
The nature of data set [1]: Selectivity index, ratio of CC50 for HIV1 human TZM-bl cells to EC50 for HIV1 ENV pseudotype from the lab-adapted CXCR4-tropic HIV-1 HXB-2 infected in human TZM-bl cells. The class given is toxicity, cell-based. Conditions: for selectivity ratio: TZM-bl cells, read-out: Selectivity Index.
The subject of data set [2] is Human immunodeficiency virus 1. Description: Antiviral activity against HIV1 Env pseudotype from the lab-adapted CXCR4-tropic HIV-1 HXB-2 infected in human TZM-bl cells preincubated for 30 min followed by viral infection and measured after 3 days by luciferase-based single-cycle infection assay. The class given is functional, organism-based.
The subject of data set [3] is Human immunodeficiency virus 1. Description: microbe, parasite or virus in culture. Conditions: Human immunodeficiency virus 1, HXB-2 subtype A, U87.CD4.CXCR4, 72 h.
A short description of data set [4]: as §1. The class given is toxicity, cell-based. Conditions: TZM-bl cells, time 3 day.
Setting [5] is: Human immunodeficiency virus 1, HXB-2, TZM-bl, read-out: IC50.

Usually CC50 stands for the concentration giving 50% cytotoxicity. On to `NC[C@H](NC(=O)c1ccc(-c2ccc(C(F)(F)F)cc2F)[nH]1)c1nc(CCO)cs1`, for which the CC50 in the data set on TZM (read-out: CC50) amounted to 39.6 µM.
What is called IC50 is the concentration at which inhibition is half-maximal. Take `NC[C@H](NC(=O)c1ccc(-c2ccc(C(F)(F)F)c(F)c2)[nH]1)c1nc(CCO)cs1`: the CC50 with TZM (read-out: CC50) turned out to be 24.4 µM. The selectivity ratio in data set [1] was 122. The IC50 in data set [2] (setting [5]) was 0.2 µM.
The matching figures for `NC[C@@H](NC(=O)c1ccc(-c2cc(F)c(Cl)c(F)c2)[nH]1)c1nc(CCO)cs1`: 32.8 µM, 33.5 and 0.98 µM.
`CC(C)(N)[C@H](NC(=O)c1ccc(-c2ccc(C(F)(F)F)cc2)[nH]1)c1nc(CO)cs1`: in the data set on TZM (read-out: CC50), the half-maximal cytotoxic concentration (CC50) amounted to 17.5 µM. Further, in data set [2] (setting [5]), the IC50 was 0.13 µM.
In the case of `NC[C@@H](NC(=O)c1ccc(-c2ccc(C(F)(F)F)c(F)c2)[nH]1)c1nc(C(O)CO)cs1` (some centres not stated), in the data set on TZM (read-out: CC50), the 50% cytotoxic concentration (CC50) was determined as 56.3 µM. Besides, the selectivity ratio in data set [1] was 23.4. Further, the 50% inhibitory concentration (IC50) in data set [2] (setting [5]) was 2.4 µM.
As to `CC(C)(N)[C@@H](NC(=O)c1ccc(-c2cc(F)c(Cl)c(F)c2)[nH]1)c1nc(CO)cs1`, the CC50 in the data set on TZM (read-out: CC50) came out at 15.8 µM. Also, the selectivity ratio in data set [1] was 135. The IC50 in data set [2] (setting [5]) is 0.15 µM.
The matching figures for `CC(C)(N)[C@H](NC(=O)c1ccc(-c2cc(F)c(Cl)c(F)c2)[nH]1)c1nc(CO)cs1`: 16 µM, 105 and 0.12 µM.
As to `NC[C@H](NC(=O)c1ccc(-c2ccc(C(F)(F)F)cc2)[nH]1)c1ncc(COCC(O)CO)s1` (some centres not stated), the CC50 with TZM (read-out: CC50) was greater than 61.9 µM. The “Selectivity Index” value in data set [1] is “Not Determined(Insoluble)”. The IC50 in data set [2] (setting [5]) is greater than 13 µM.
Turning to `NC[C@@H](NC(=O)c1ccc(-c2ccc(C(F)(F)F)cc2F)[nH]1)c1nc(CO)cs1`, the CC50 in the data set on TZM (read-out: CC50) came out at 26.8 µM. Further, in data set [1], the selectivity ratio was found to be 43.9. Also, the concentration for half-maximal inhibition (IC50) in data set [2] (setting [5]) was 0.61 µM.
The matching figures for `NC[C@H](NC(=O)c1ccc(-c2ccc(C(F)(F)F)c(F)c2)[nH]1)c1nc(C(O)CO)cs1` (some centres not stated): 72.4 µM, 132 and 0.55 µM.
The compound `NC[C@@H](NC(=O)c1ccc(-c2ccc(C(F)(F)F)cc2)[nH]1)c1ncc(CO)s1` displayed an IC50 in data set [3] of 0.11 µM.
For the compound `NC[C@@H](NC(=O)c1ccc(-c2ccc(C(F)(F)F)cc2)[nH]1)c1ncc(COCC(O)CO)s1` (some centres not stated), in data set [4], the CC50 at 72 h turned out to be 80 µM. The selectivity ratio in data set [1] worked out at 38. For the same compound, the IC50 in data set [2] (setting [5]) came to 2.1 µM.
For `NC[C@@H](NC(=O)c1ccc(-c2ccc(C(F)(F)F)cc2C(F)(F)F)[nH]1)c1nc(CO)cs1`, the CC50 in the data set with TZM (read-out: CC50) amounted to 37.6 µM. In data set [1], the selectivity ratio was found to be 5.9. The IC50 in data set [2] (setting [5]) is 6.3 µM.
Consider `CC(C)(N)[C@@H](NC(=O)c1ccc(-c2ccc(C(F)(F)F)cc2)[nH]1)c1nc(CO)cs1`, for which the CC50 in the data set with TZM (read-out: CC50) was 19.9 µM. Further, in data set [1], the selectivity ratio was 15.3. The IC50 in data set [2] (setting [5]) came to 1.3 µM.
The matching figures for `NC[C@H](NC(=O)c1ccc(-c2ccc(C(F)(F)F)cc2C(F)(F)F)[nH]1)c1nc(CO)cs1`: 33.4 µM, 7.9 and 4.2 µM.
As for `NC[C@@H](NC(=O)c1ccc(-c2ccc(C(F)(F)F)c(F)c2)[nH]1)c1nc(C(N)=O)cs1`, the cytotoxic concentration (CC50) with TZM (read-out: CC50) amounted to 25.9 µM. The selectivity ratio in data set [1] stood at 11.3. Also, the IC50 in data set [2] (setting [5]) was 2.3 µM.
As for `Cc1cc(-c2ccc(C(F)(F)F)c(F)c2)[nH]c1C(=O)N[C@@H](CN)c1nc(CO)cs1`, in the data set on TZM (read-out: CC50), the CC50 was determined as 18.5 µM. The selectivity ratio in data set [1] is 24.7. For the same compound, the IC50 in data set [2] (setting [5]) is 0.54 µM.
The matching figures for `NC[C@H](NC(=O)c1ccc(-c2ccc(C(F)(F)F)c(F)c2)[nH]1)c1nc(CCCO)cs1`: 22.6 µM, 90.4 and 0.25 µM.
On to `NC[C@H](NC(=O)c1ccc(-c2cc(F)c(Cl)c(F)c2)[nH]1)c1nc(CCO)cs1`, for which, in data set [1], the selectivity ratio is 218. Besides, the IC50 in data set [2] (setting [5]) came to 0.15 µM.
`CC(C)(N)[C@H](NC(=O)c1ccc(-c2ccc(C(F)(F)F)cc2)[nH]1)c1ncc(CO)s1`: in the data set with TZM (read-out: CC50), the CC50 is 25.1 µM. Further, in data set [1], the selectivity ratio is 109. Also, the half-inhibitory concentration (IC50) in data set [2] (setting [5]) was 0.23 µM.
The matching figures for `COC(=O)c1csc([C@H](CN)NC(=O)c2ccc(-c3ccc(C(F)(F)F)c(F)c3)[nH]2)n1`: 41.6 µM, 14.3 and 2.9 µM.
On to `NC[C@@H](NC(=O)c1ccc(-c2ccc(C(F)(F)F)c(F)c2)[nH]1)c1nc(C(=O)O)cs1`, for which the CC50 result in the data set on TZM was “Not Determined(Insoluble)”. Besides, in data set [1], the “Selectivity Index” value is on record as “Not Determined(Insoluble)”. In addition, the IC50 entry in data set [2] (tzm-bl) was “Not Determined(Insoluble)”.
In the case of `NC[C@@H](NC(=O)c1ccc(-c2ccc(C(F)(F)F)c(F)c2)[nH]1)c1ncc(C(O)CO)s1` (some centres not stated), the CC50 in the data set on TZM (read-out: CC50) stood at 70.5 µM. For the same compound, the selectivity ratio in data set [1] was 119. The IC50 in data set [2] (setting [5]) was determined as 0.59 µM.
The matching figures for `NC[C@H](NC(=O)c1ccc(-c2ccc(C(F)(F)F)cc2F)[nH]1)c1nc(CO)cs1`: 25.7 µM, 137 and 0.187 µM.
Regarding `NC[C@@H](NC(=O)c1ccc(-c2ccc(C(F)(F)F)cc2F)[nH]1)c1nc(CCO)cs1`, the 50% cytotoxic concentration (CC50) in the data set with TZM (read-out: CC50) came out at 23.4 µM.
As to `NC[C@H](NC(=O)c1ccc(-c2ccc(C(F)(F)F)c(F)c2)[nH]1)c1ncc(C(O)CO)s1` (some centres not stated), in the data set with TZM (read-out: CC50), the CC50 is 98 µM. Further, the selectivity ratio in data set [1] was 15.8. Moreover, the IC50 in data set [2] (setting [5]) came to 6.2 µM.
In the case of `CC(CN)(NC(=O)c1ccc(-c2cc(F)c(Cl)c(F)c2)[nH]1)c1nc(CO)cs1` (racemic), in the data set on TZM (read-out: CC50), the CC50 came out at 47.7 µM. In addition, the selectivity ratio in data set [1] stood at 18.3. The IC50 in data set [2] (setting [5]) was found to be 2.6 µM.
Take `Cc1cc(-c2ccc(C(F)(F)F)c(F)c2)[nH]c1C(=O)N[C@H](CN)c1ncc(CO)s1`: in the data set on TZM (read-out: CC50), the CC50 was found to be 10.4 µM. The IC50 in data set [2] (setting [5]) was determined as 0.21 µM.
For `NC[C@@H](NC(=O)c1ccc(-c2ccc(C(F)(F)F)c(F)c2)[nH]1)c1nc(CCCO)cs1`, in the data set on TZM (read-out: CC50), the CC50 worked out at 38 µM. For the same compound, in data set [1], the selectivity ratio was determined as 10.8. The IC50 in data set [2] (setting [5]) amounted to 3.5 µM.
With `NC[C@H](NC(=O)c1ccc(-c2ccc(C(F)(F)F)c(F)c2)[nH]1)c1nc(C(=O)O)cs1`, in the data set with TZM, the CC50 result is given as “Not Determined(Insoluble)”. Besides, the “Selectivity Index” value in data set [1] is recorded as “Not Determined(Insoluble)”. For the same compound, in data set [2] (tzm-bl), the IC50 entry is given as “Not Determined(Insoluble)”.
Regarding `NC[C@@H](NC(=O)c1ccc(-c2ccc(C(F)(F)F)c(F)c2)[nH]1)c1nc(CCO)cs1`, the cytotoxic concentration (CC50) in the data set with TZM (read-out: CC50) amounted to 24.2 µM. For the same compound, in data set [1], the selectivity ratio came out at 47.4. Also, in data set [2] (setting [5]), the IC50 is 0.51 µM.
The matching figures for `NC[C@H](NC(=O)c1ccc(-c2ccc(C(F)(F)F)c(F)c2)[nH]1)c1nc(C(N)=O)cs1`: greater than 52 µM, 34.2 and greater than 10 µM.
The matching figures for `Cc1cc(-c2ccc(C(F)(F)F)c(F)c2)[nH]c1C(=O)N[C@H](CN)c1nc(CO)cs1`: 14.1 µM, 20.6 and 0.57 µM.
As to `CC(C)(N)[C@@H](NC(=O)c1ccc(-c2ccc(C(F)(F)F)cc2)[nH]1)c1ncc(CO)s1`, the CC50 in the data set with TZM (read-out: CC50) amounted to 23.1 µM. Moreover, the selectivity ratio in data set [1] turned out to be 34. For the same compound, the IC50 in data set [2] (setting [5]) was 0.68 µM.
The matching figures for `Cc1cc(-c2ccc(C(F)(F)F)c(F)c2)[nH]c1C(=O)N[C@@H](CN)c1ncc(CO)s1`: 10.3 µM, 49.5 and 0.15 µM.
The matching figures for `CC(CN)(NC(=O)c1ccc(-c2ccc(C(F)(F)F)c(F)c2)[nH]1)c1nc(CO)cs1` (racemic): 45.3 µM, 28 and 1.6 µM.
For `N#Cc1ccc(-c2ccc(C(=O)N[C@H](CN)c3nc(CO)cs3)[nH]2)cc1`, in the data set with TZM (read-out: CC50), the CC50 was greater than 82 µM. The “Selectivity Index” value in data set [1] is given as “Not Determined(Insoluble)”. Also, the concentration for half-maximal inhibition (IC50) in data set [2] (setting [5]) was greater than 16 µM.
Turning to `COC(=O)c1csc([C@@H](CN)NC(=O)c2ccc(-c3ccc(C(F)(F)F)c(F)c3)[nH]2)n1`, the CC50 in the data set on TZM (read-out: CC50) stood at 23.4 µM. The selectivity ratio in data set [1] is 4.8. Moreover, in data set [2] (setting [5]), the concentration for half-maximal inhibition (IC50) is 4.9 µM.
Turning to `N#Cc1ccc(-c2ccc(C(=O)N[C@@H](CN)c3nc(CO)cs3)[nH]2)cc1`, in data set [1], the “Selectivity Index” value is given as “Not Determined(Insoluble)”. Besides, in data set [2] (setting [5]), the IC50 was greater than 16 µM.

The values above are taken from ChEMBL document CHEMBL5230138, “Design, synthesis, and antiviral activity of a series of CD4-mimetic small-molecule HIV-1 entry inhibitors” (Bioorg Med Chem, 2021).
